Values quoted from earlier work in patent US20140050728A1, “METHODS AND COMPOSITIONS FOR INHIBITING CYCLOPHILIN D FOR THE TREATMENT AND PREVENTION OF OBESITY AND KIDNEY INDICATIONS” (BOARD OF REGENTS OF THE UNIVERSITY OF NEBRASKA, priority 2011, published 2014).

Conditions: for weight loss in clinical trials: none of the trials achieved the NIH effectiveness threshold

Compound	cardiovascular risk associated with use (banned in Europe, cautioned by U.S. FDA)	weight loss in clinical trials
CC(C)CC(N(C)C)C1(c2ccc(Cl)cc2)CCC1 (stereo not drawn) [sibutramine]	increased cardiovascular risk	modest weight loss
CCCCCCCCCCC[C@@H](C[C@@H]1OC(=O)[C@H]1CCCCCC)OC(=O)[C@H](CC(C)C)NC=O [orlistat]	–	modest weight loss
